Measurements taken from patent publication US20160176855A1, “Novel Sterically Hindered Cyclic Amines” (CLARIANT INTERNATIONAL LTD, priority 2013, published 2016).

Assay: Solubility in solvents
Assay type: physicochemical

Solubility (in DMF): soluble
Solubility (in ethanol): soluble
Solubility (in hexane): insoluble
Solubility (in methanol): soluble
Solubility (in water): insoluble
SMILES: CC1(C)CC(NC(=O)c2ccc(C(=O)NC3CC(C)(C)NC(C)(C)C3)o2)CC(C)(C)N1 [Example 2, N,N′-bis(2,2,6,6-tetramethyl-4-piperidinyl)-2,5-furandicarboxamide]
